The assay concerns the target SARS CoV nsp8 RNA dependent RNA polymerase, N-terminally His-tagged (SARS-CoV replicase residues 3920-4117), SEQ ID NO. 1 (Severe acute respiratory syndrome coronavirus, UniProt P0C6X7). Kind of assay: biochemical. It counts as biochemical.

SMILES strings stand for the structures.

The term IC50 denotes the point on the concentration scale where inhibition reaches its midpoint. Read a high IC50 as a need for much substance. On to `Nc1nc2c(ncn2[C@@H]2O[C@H](COP(=O)(O)OP(=O)(O)OP(=O)(O)O)C[C@H]2O)c(=O)[nH]1` [3'-deoxy GTP, 3'-deoxy-GTP], for which the IC50 is around 80 nM and the “Nsp8 activity inhibition in presence of 50 µM 3'-deoxy GTP” value is “can be inhibited”.

As for `CO[C@H]1/C=C/O[C@@]2(C)Oc3c(C)c(O)c4c(O)c(c(/C=N/N5CCN(C)CC5)c(O)c4c3C2=O)NC(=O)/C(C)=C\C=C\[C@H](C)[C@H](O)[C@@H](C)[C@@H](O)[C@@H](C)[C@H](OC(C)=O)[C@@H]1C` [Rifampicine], the “nsp8 polymerase activity in presence of Rifampicine (inhibitor of the bacterial polymerase)” value is “activity detected”.
